Nc1ccc(Cl)cc1[N+](=O)[O-]
solubility (mole fraction)
Conditions	278.15 K	283.15 K	288.15 K	293.15 K	298.15 K	303.15 K	308.15 K	313.15 K	318.15 K	323.15 K
in 1,4-dioxane	–	–	0.0282	0.0337	0.0405	0.0509	0.065	0.0828	0.105	0.133
in NMP	0.0539	0.0605	0.0737	0.0887	0.106	0.125	0.142	0.167	0.187	0.223
in acetonitrile	0.0327	0.0373	0.0442	0.053	0.0625	0.075	0.09	0.105	0.124	0.145
in cyclohexane	0.000163	0.000195	0.000267	0.000354	0.000468	0.000613	0.000773	0.000983	0.00124	0.0016
in ethanol	0.013	0.0144	0.0168	0.0194	0.0232	0.0277	0.0323	0.0371	0.043	0.0493
in ethyl acetate	0.0193	0.0244	0.032	0.0418	0.0535	0.0684	0.0883	0.113	0.143	0.177
in ethylene glycol	0.00179	0.00229	0.00281	0.00363	0.00453	0.00573	0.00737	0.00926	0.0118	0.0158
in isopropanol	0.0111	0.0123	0.0145	0.0175	0.0208	0.0252	0.0296	0.0352	0.0406	0.0463
in methanol	0.0158	0.017	0.0199	0.0239	0.0287	0.034	0.0403	0.0479	0.056	0.0667
in n-butanol	0.00963	0.0107	0.0124	0.0146	0.0177	0.0215	0.0257	0.0301	0.0357	0.0427
in n-propanol	0.0119	0.013	0.0152	0.018	0.0217	0.0259	0.0308	0.0362	0.042	0.0481
in water	8e-06	1e-05	1.4e-05	1.9e-05	2.5e-05	3.3e-05	4.3e-05	5.5e-05	7e-05	8.6e-05
